Results on one sequence are retold here after patent publication US9303069B2, “Peptides for treating cancer” (University of Mississippi Medical Center, priority 2014, dated 2016).

Ends that are not written are not given here.

Experiment [1] concerns SKOV3 cells. The format is cell-based, human. The note with it: 48 h. The protocol: Thus, a peptide (hereafter IRIS peptide) composed of a cell/nucleus penetrating signal (FIG. 26) fused to BRCA1-IRIS intron 11 (FIG. 26) was synthesized. Equal numbers of HOSE, HOSE/IRIS, SKOV3, OVCAR3, OVCAR420 and OV-90 cells were grown in the presence of increasing concentrations of IRIS peptide for 48 hours.
To investigate the contribution of ErbB2 and TrkB to BRCA1-IRIS-induced cisplatin resistance, equal numbers of SKOV3 cells were either depleted from BRCA1-IRIS, ErbB2 or TrkB using specific siRNAs for 48 hours before they were (i) exposed to increasing concentrations of cisplatin for another 24 hours or (ii) exposed to IRIS peptide, ErbB2 inhibitor (CP-724714), TrkB inhibitor (K252a) or both for 24 hours, before they were exposed to increasing concentrations of cisplatin for another 24 hours.
Cell viability measurement. Cell viability under different experimental conditions was determined using the MTS assay […]. Briefly, SKOV3, OVACAR3, HOSE and HOSE/IRIS cells (2.5×10^4 cells per well) were seeded in 96 well plates and incubated overnight at 37° C. in 10% humidified CO2 atmosphere in varying concentrations of IRIS peptide, or inhibitors of ErbB2 (CP-724714), EGFR (Erlotinib), TrkB (K252a), JNK (SP600125), p38 (SB203580), ERK (PD98059) and PI3′K/AKT (LY294002) inhibitors for 24 hours at 37° C. Cell Titer 96® Aqueous (Promega, Madison, Wis., USA) was used to measure viability following manufactures instructions. Cell viability (%) was expressed as a ratio to control cells×100. Growth inhibition was also determined by manually counting cells in five different microscopic fields. Change in cell numbers (fold) was expressed as a ratio to control cells×100. All experiments were done in at least triplicates, three different times. * is p≦0.05, ** is p≦0.001 and *** is p≦0.0001.
Transfections of siRNA. siRNAs for human ErbB2 and TrkB were purchased from Ambion and Santa Cruz Biotechnology, USA. Custom synthesized siRNA against BRCA1 IRIS was used. siRNA against luciferase gene was used as the negative control. Sub-confluent cells were transfected in 6- or 96-well plates with ErbB2 (100 nM), TrkB (100 nM), BRCA1 IRIS (200 nM) or control siRNA using Oligofectamine™ reagent (GibcoBRL Inc, USA) following the instructions of the manufacturer. Protein expression was tested by Western blot after 72 hours of siRNA transfection. Cell viability was evaluated by MTS or by manual counting after 72 hours of siRNA exposure alone or in combination with cisplatin exposure (for an additional 24 hours).

The subject of experiment [2] is SKOV3 cells. Nature of the experiment: Tumor-sphere forming assay, SKOV3. The format is cell-based, human. The note with it: SKOV3, ultra-low binding dishes, two weeks; IRIS peptide 5 μM every third day. As to the method: Tumor-sphere: SKOV3 cells treated with scrambled or IRIS peptide (5 μM, added every third day) or expressing BRCA1-IRIS shRNA were grown in ultra-low binding culture dishes as single cells. […] BRCA1-IRIS silencing led to ˜7 fold decrease in tumor-sphere number (FIG. 43) and diameter (FIG. 43, inset), and an even more pronounced effect was detected with IRIS peptide (FIG. 43, and inset).
Tumor-sphere forming assay. Subconfluent monolayer cells were trypsinized and dissociated thoroughly to prepare single cell suspension. 1000 cells were plated, per well, onto ultra-low attachment 6-well plates (Corning Life Sciences, Union City, Calif.) in Dulbecco's modified Eagle's medium (DMEM)/F12 supplemented with 10% FBS, 2% B27 (Invitrogen), 10 ng/ml basic-fibroblast growth factor and 10 ng/mL epidermal growth factor. Cells were then incubated at 37° C. in humidified air with 10% CO2. 500 μl of medium was added to each well every 3 days, the medium containing the scrambled or IRIS peptide. […]

The next experiment relates to BRCA1-IRIS. Nature of the experiment: BRCA1-IRIS expression in ovarian cells (Western analysis). To be noted: all ovarian cell lines; 10 μM of IRIS peptide for 24 hours. Format: cell-based, human. From the text:
At these low concentrations of cisplatin BRCA1-IRIS expression was induced in HOSE cells and remained high in HOSE/IRIS cells (FIG. 17). […] Cell lines expressing the lowest levels of BRCA1-IRIS (i.e.

The test system of the next experiment is HME cells. To be noted: 48 h.
A further experiment has as its system BRCA1-IRIS and survivin. Nature of the experiment: IHC of MDA-MB-468 tumors for BRCA1-IRIS and survivin. The format is in vivo, mice. The note with it: MDA-MB-468 tumors after treatment. From the text: To study that on the molecular level, sections from these tumors were stained with H&E or for BRCA1-IRIS or survivin using immunohistochemistry. […] Accordingly, it is proposed that inactivating BRCA1-IRIS in TNBC patients might sensitize to lower paclitaxel concentrations to avoid the adverse side effects and also to prevent the recurrence of these tumors at a later point.
Immunohistochemistry (IHC). Breast tissue microarrays comprised of normal, DCIS, invasive and metastatic were purchased from US Biomax, Inc. Paraffin embedded tissue sections were de-waxed in xylene and rehydrated in alcohol. Antigen-retrieval: for FOXO3a and survivin was by heating the slides in citrate buffer (10 μM, pH 6.0) using microwave (Power level 4) for 10 minutes, for BRCA1-IRIS by incubating slides in pepsin (10 μM) for 20 min at 37° C. Endogenous peroxidase activity was suppressed by treating the slides with 3% H2O2 for 10 min. Slides were then incubated for 1 hour at room temperature with antibodies to human FOXO3a or survivin (Cell Signaling Technology, USA 1:400), or overnight at 4° C. with monoclonal anti-human BRCA1-IRIS (1:75). Vectastain Elite ABC Kit was used to develop the staining using horseradish peroxidase labeled secondary antibodies (1 hour at room temperature).

Method for HME cells: All cell lines were exposed to increasing concentrations of paclitaxel and BRCA1-IRIS expression, and cells' viability was then measured.
Cell viability measurement. Cell viability under different experimental conditions was determined using the MTS assay. Briefly, cells (2.5×10^4 cells per well) were seeded in 96-well plates and incubated overnight at 37° C. in 10% humidified CO2 atmosphere. The next day they were incubated with varying concentration of peptide, or inhibitors for 24 hours at 37° C. Cell viability was determined using cell Titer 96® Aqueous (Promega, Madison, Wis., USA) following manufacturer's instructions. Cell viability (%) was expressed as a ratio of treated cells to control cells×100. […] Each experiment was done in triplicate, repeated three separate times.

As to “RRIRPRPPRLPRPRPRPLPFPRPGIGTRFLCLPQSIYRSELNVYAFGEHILQISKYS [IRIS peptide]”, the results for the concentration for half-maximal inhibition (IC50) with SKOV3 cells [1] and in the experiment with HME cells were approximately 10 µM and approximately 0.5 µM, respectively. Moreover, the tumor-sphere formation result with SKOV3 cells [2] is “formed no tumor-spheres”. Moreover, the BRCA1-IRIS expression result in the experiment with BRCA1-IRIS was “significant reduction in BRCA1-IRIS expression”. In the experiment on BRCA1-IRIS and survivin, the “BRCA1-IRIS and survivin expression in tumors (IHC)” value is reported as “almost completely absent”.

By IC50 is commonly meant the concentration that gives 50% inhibition.
